In patent US20240058329A1, “OPHTHALMIC COMPOSITION OF RIFAMYCIN, AND USE THEREOF” (BNC KOREA CO., LTD., priority 2020, published 2024):
Where two headings read alike, the source gives them in different places. Marks after values point to notes of the source that are not given here.

Tests used:
[1] = Rabbit; 0.5%, 50 μL, 250 μg; Sigurdsson et al. (2007); cited from earlier work
[2] = Retina exposure level of rifampicin after application of topical eye drops (3 or 10 drops), LC/MS; type: in vivo, Sprague-Dawley rats; conditions: for Drug amount detected in retina: Rat, 0.25%, present study; for Rifampicin extracted from retina: rat, average of n = 3
Method: The remaining two rats received the same application, but 10 drops of the eye drops, in each eye under isoflurane sedation. A single drop contained 5 μL of the above-described formulation, and application of each drug drop was carried out with intervals of 30 minutes. After the eye drop application, the retina was excised from each rat under a dissection microscope. In addition, “non-treated” negative controls were used, and the retina was excised from two rats without performing any treatments on the rats. The retina was placed in a 1.5-ml microcentrifuge tube (1 retina/tube), and was fully washed with DPBS. After completion of the washing procedures, the retinal tissues in the microcentrifuge tube were frozen in dry ice, and were then preserved for quantification by LC/MS analysis.

[3] = tested on: oxygen-induced retinopathy rat models; test: Neovascularization in retina quantified by capillaries in histology sections; type: in vivo, Sprague-Dawley rat; conditions: n = 3, vehicle only control 16.3
Method: Oxygen-induced retinopathy rat models were produced according to the protocols of Yanni et al. (2010) and Dorfmann et al. (2008). Sprague-Dawley rat babies (and their nursing mothers) were exposed to a cycling oxygen environment (80% and 21%, about one day for each) for 15 days after starting from the day of birth (Day 0). On Day 15 (P15), the animals were moved to room air. […] An eye drop formulation shown as Example 1 A in Table 1, or a vehicle only was administered to the eyes of the baby rats every day, for 5 days between P15 and P19, in the morning, about the noon, and in the evening. […] On P20, all of the animals were euthanized, and the retina was visualized as histology sections. In those histology sections, capillaries in the retinal tissues in 3 eye balls (AMD 101 topical application, AMD 101 SC injection administration group, and non-induction of retinopathy) or 5 eye balls (control administration group of a vehicle only) were counted, so that neovascularization was quantified. These eye balls were selected from different animals in the above-described administration groups. Representative images of the histology sections are shown (see FIGS. 1A to 1H).

[4] = 3% rifampicin solution, boric acid buffer
Method: In the present example, the pH value was set to be pH 2 to 12, and the concentration of a nonionic surfactant was set to be 0.001% by weight to 50% by weight. As buffer solutions, a boric acid buffer solution, and a phosphoric acid buffer solution and a citric acid buffer solution were used.
A 50 mM phosphoric acid buffer solution, a 50 mM citric acid buffer solution, or a 25 mM boric acid-borax buffer solution (all of which were final concentrations) was prepared, and thereafter, about 0.9% sodium chloride, about 0.1% EDTA, 0.01% benzalkonium chloride (all of which were final concentrations), and various concentrations of nonionic surfactants (Tween 80 or Polyoxyethylene (7) alkyl (sec-C11-15) ethers) were mixed into the solution. […] In the case of using a citric acid buffer solution, the pH value of the mixed solution was adjusted using hydrochloric acid under conditions of pH 2.6 or less. In the case of using boric acid, the pH value was adjusted using hydrochloric acid under conditions of pH 5.7 or less. […] The thus prepared solutions were continuously blended for about 2 hours, and the pH value thereof was measured at 25° C.

C[C@@H]1C[C@H]2[C@@H]3CCC4=CC(=O)C=C[C@]4(C)[C@@]3(F)[C@@H](O)C[C@]2(C)[C@@]1(O)C(=O)CO [Dexamethasone]
Drug amount detected in retina [1]: About 33 ng/1 g of ng/1 g of retinal tissues

CO[C@H]1/C=C/O[C@@]2(C)Oc3c(C)c(O)c4c(O)c(c(/C=N/N5CCN(C)CC5)c(O)c4c3C2=O)NC(=O)/C(C)=C\C=C\[C@H](C)[C@H](O)[C@@H](C)[C@@H](O)[C@@H](C)[C@H](OC(C)=O)[C@@H]1C [rifampicin]
Drug amount detected in retina ([2]; 3 drops (15 μL, 37.5 μg)): About 1,288 ng/1 g of ng/1 g of retinal tissues
Drug amount detected in retina ([2]; 10 drops (50 μL, 125 μg)): About 2,939 ng/1 g of ng/1 g of retinal tissues
Rifampicin extracted from retina ([2]; 3 drops (5 μL each, 30 min intervals) of 0.25% rifampicin eye drops (Example 1A) per eye): 1,288* ng/1 g of tissues
Rifampicin extracted from retina ([2]; 10 drops (5 μL each, 30 min intervals) of 0.25% rifampicin eye drops (Example 1A) per eye): 2,939* ng/1 g of tissues
Average numbers of capillaries in high power field per eye ([3]; 0.25% AMD101 topical eye drop (Example 1A), three times a day P15 to P19): 7.78
Average numbers of capillaries in high power field per eye ([3]; 0.5% AMD101 SC injection (Example 6A), 20 mg/Kg once a day P15 to P19): 9.28
nonionic surfactant addition by which the composition is solubilized (from relational expression) ([4]; pH 3.0): about 8.2%
nonionic surfactant addition by which the composition is solubilized (from relational expression) ([4]; pH 4.0): about 10.7%
pH at which solubilization of rifampicin does not need addition of a surfactant ([…]): ≥ 8.5
rifampicin concentration whose solubilization did not need addition of a surfactant (pH range of pH 2 to pH 12): ≤ 0.002 % by weight
